From PubChem BioAssay (NCI)
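Five concentrations, 48 hours, 96-well plates. GI50 is the concentration that inhibits growth by half. TGI denotes the concentration required for complete inhibition of growth.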

Tests used:
Assay in all cases: NCI-60 cell line screen, 48 h
786-0 renal = test system: 786-0 renal
A498 renal = test system: A498 renal
A549 NSCLC = test system: A549 NSCLC
ACHN renal = test system: ACHN renal
BT-549 breast = test system: BT-549 breast
CAKI-1 renal = test system: CAKI-1 renal
CCRF-CEM leukemia = test system: CCRF-CEM leukemia
COLO 205 colon = test system: COLO 205 colon
DU-145 prostate = test system: DU-145 prostate
EKVX NSCLC = test system: EKVX NSCLC
HCC-2998 colon = test system: HCC-2998 colon
HCT-116 colon = test system: HCT-116 colon
HCT-15 colon = test system: HCT-15 colon
HOP-62 NSCLC = test system: HOP-62 NSCLC
HOP-92 NSCLC = test system: HOP-92 NSCLC
HS 578T breast = test system: HS 578T breast
HT29 colon = test system: HT29 colon
IGROV1 ovarian = test system: IGROV1 ovarian
K-562 leukemia = test system: K-562 leukemia
KM12 colon = test system: KM12 colon
LOX IMVI melanoma = test system: LOX IMVI melanoma
MALME-3M melanoma = test system: MALME-3M melanoma
MCF7 breast = test system: MCF7 breast
MDA-MB-231 breast = test system: MDA-MB-231 breast
MDA-MB-435 = test system: MDA-MB-435
MOLT-4 leukemia = test system: MOLT-4 leukemia
NCI-H226 lung = test system: NCI-H226 lung
NCI-H23 lung = test system: NCI-H23 lung
NCI-H460 lung = test system: NCI-H460 lung
NCI-H522 lung = test system: NCI-H522 lung
NCI/ADR-RES ovarian = test system: NCI/ADR-RES ovarian
OVCAR-3 ovarian = test system: OVCAR-3 ovarian
OVCAR-4 ovarian = test system: OVCAR-4 ovarian
OVCAR-5 ovarian = test system: OVCAR-5 ovarian
OVCAR-8 ovarian = test system: OVCAR-8 ovarian
PC-3 prostate = test system: PC-3 prostate
RPMI-8226 leukemia = test system: RPMI-8226 leukemia
RXF 393 renal = test system: RXF 393 renal
SF-268 CNS = test system: SF-268 CNS
SF-295 CNS = test system: SF-295 CNS
SF-539 CNS = test system: SF-539 CNS
SK-MEL-2 melanoma = test system: SK-MEL-2 melanoma
SK-MEL-28 melanoma = test system: SK-MEL-28 melanoma
SK-MEL-5 melanoma = test system: SK-MEL-5 melanoma
SK-OV-3 ovarian = test system: SK-OV-3 ovarian
SN12C renal = test system: SN12C renal
SNB-19 CNS = test system: SNB-19 CNS
SNB-75 CNS = test system: SNB-75 CNS
SR leukemia = test system: SR leukemia
SW-620 colon = test system: SW-620 colon
T-47D breast = test system: T-47D breast
TK-10 renal = test system: TK-10 renal
U251 CNS = test system: U251 CNS
UACC-257 melanoma = test system: UACC-257 melanoma
UACC-62 melanoma = test system: UACC-62 melanoma
UO-31 renal = test system: UO-31 renal

In the case of COc1ccc(-c2cc(-c3cccn3C)c(C#N)c(=O)[nH]2)cc1OC, the GI50 (786-0 renal) is reported as over 100 µM, the TGI (786-0 renal) is reported as over 100 µM and the GI50 (A498 renal) is reported as 56.6 µM. For the same compound, the TGI (A498 renal) was over 100 µM, the GI50 (A549 NSCLC) was over 100 µM and the TGI (A549 NSCLC) was over 100 µM. It also gave a GI50 (ACHN renal) of over 100 µM, a TGI (ACHN renal) of over 100 µM and a GI50 (BT-549 breast) of over 100 µM. It also gave a TGI (BT-549 breast) of over 100 µM, a GI50 (CAKI-1 renal) of over 100 µM and a TGI (CAKI-1 renal) of over 100 µM. It also gave a GI50 (CCRF-CEM leukemia) of 5.02 µM, a TGI (CCRF-CEM leukemia) of over 100 µM and a GI50 (COLO 205 colon) of over 100 µM. It also gave a TGI (COLO 205 colon) of over 100 µM, a GI50 (DU-145 prostate) of over 100 µM and a TGI (DU-145 prostate) of over 100 µM. The GI50 (EKVX NSCLC) was 30.7 µM, the TGI (EKVX NSCLC) was over 100 µM and the GI50 (HCC-2998 colon) was 88.7 µM. For the same compound, the TGI (HCC-2998 colon) was over 100 µM, the GI50 (HCT-116 colon) was over 100 µM and the TGI (HCT-116 colon) was over 100 µM. It also gave a GI50 (HCT-15 colon) of over 100 µM, a TGI (HCT-15 colon) of over 100 µM and a GI50 (HOP-62 NSCLC) of over 100 µM. The TGI (HOP-62 NSCLC) was over 100 µM, the GI50 (HOP-92 NSCLC) was 0.0508 µM and the TGI (HOP-92 NSCLC) was 9.8 µM. It also gave a GI50 (HS 578T breast) of over 100 µM, a TGI (HS 578T breast) of over 100 µM and a GI50 (HT29 colon) of over 100 µM. For the same compound, the TGI (HT29 colon) was over 100 µM, the GI50 (IGROV1 ovarian) was 91.7 µM and the TGI (IGROV1 ovarian) was over 100 µM. For the same compound, the GI50 (K-562 leukemia) was over 100 µM, the TGI (K-562 leukemia) was over 100 µM and the GI50 (KM12 colon) was over 100 µM. It also gave a TGI (KM12 colon) of over 100 µM, a GI50 (LOX IMVI melanoma) of over 100 µM and a TGI (LOX IMVI melanoma) of over 100 µM. The GI50 (MALME-3M melanoma) was over 100 µM, the TGI (MALME-3M melanoma) was over 100 µM and the GI50 (MCF7 breast) was over 100 µM. The TGI (MCF7 breast) was over 100 µM, the GI50 (MDA-MB-231 breast) was over 100 µM and the TGI (MDA-MB-231 breast) was over 100 µM. The GI50 (MDA-MB-435) was over 100 µM, the TGI (MDA-MB-435) was over 100 µM and the GI50 (MOLT-4 leukemia) was 22.7 µM. It also gave a TGI (MOLT-4 leukemia) of over 100 µM, a GI50 (NCI-H226 lung) of over 100 µM and a TGI (NCI-H226 lung) of over 100 µM. For the same compound, the GI50 (NCI-H23 lung) was over 100 µM, the TGI (NCI-H23 lung) was over 100 µM and the GI50 (NCI-H460 lung) was over 100 µM. The TGI (NCI-H460 lung) was over 100 µM, the GI50 (NCI-H522 lung) was over 100 µM and the TGI (NCI-H522 lung) was over 100 µM. For the same compound, the GI50 (NCI/ADR-RES ovarian) was over 100 µM, the TGI (NCI/ADR-RES ovarian) was over 100 µM and the GI50 (OVCAR-3 ovarian) was over 100 µM. The TGI (OVCAR-3 ovarian) was over 100 µM, the GI50 (OVCAR-4 ovarian) was over 100 µM and the TGI (OVCAR-4 ovarian) was over 100 µM. For the same compound, the GI50 (OVCAR-5 ovarian) was over 100 µM, the TGI (OVCAR-5 ovarian) was over 100 µM and the GI50 (OVCAR-8 ovarian) was over 100 µM. The TGI (OVCAR-8 ovarian) was over 100 µM, the GI50 (PC-3 prostate) was over 100 µM and the TGI (PC-3 prostate) was over 100 µM. It also gave a GI50 (RPMI-8226 leukemia) of over 100 µM, a TGI (RPMI-8226 leukemia) of over 100 µM and a GI50 (RXF 393 renal) of over 100 µM. It also gave a TGI (RXF 393 renal) of over 100 µM, a GI50 (SF-268 CNS) of over 100 µM and a TGI (SF-268 CNS) of over 100 µM. For the same compound, the GI50 (SF-295 CNS) was over 100 µM, the TGI (SF-295 CNS) was over 100 µM and the GI50 (SF-539 CNS) was 66.8 µM. For the same compound, the TGI (SF-539 CNS) was over 100 µM, the GI50 (SK-MEL-2 melanoma) was over 100 µM and the TGI (SK-MEL-2 melanoma) was over 100 µM. It also gave a GI50 (SK-MEL-28 melanoma) of over 100 µM, a TGI (SK-MEL-28 melanoma) of over 100 µM and a GI50 (SK-MEL-5 melanoma) of over 100 µM. For the same compound, the TGI (SK-MEL-5 melanoma) was over 100 µM, the GI50 (SK-OV-3 ovarian) was over 100 µM and the TGI (SK-OV-3 ovarian) was over 100 µM. The GI50 (SN12C renal) was over 100 µM, the TGI (SN12C renal) was over 100 µM and the GI50 (SNB-19 CNS) was over 100 µM. It also gave a TGI (SNB-19 CNS) of over 100 µM, a GI50 (SNB-75 CNS) of 24.2 µM and a TGI (SNB-75 CNS) of over 100 µM. For the same compound, the GI50 (SR leukemia) was 0.483 µM, the TGI (SR leukemia) was over 100 µM and the GI50 (SW-620 colon) was over 100 µM. It also gave a TGI (SW-620 colon) of over 100 µM, a GI50 (T-47D breast) of 34.7 µM and a TGI (T-47D breast) of over 100 µM. It also gave a GI50 (TK-10 renal) of over 100 µM, a TGI (TK-10 renal) of over 100 µM and a GI50 (U251 CNS) of over 100 µM. It also gave a TGI (U251 CNS) of over 100 µM, a GI50 (UACC-257 melanoma) of over 100 µM and a TGI (UACC-257 melanoma) of over 100 µM. The GI50 (UACC-62 melanoma) was 65.5 µM, the TGI (UACC-62 melanoma) was over 100 µM and the GI50 (UO-31 renal) was 85.1 µM. The TGI (UO-31 renal) was over 100 µM.
